Experimental data from PMC9154192 (PLoS Biology, 2022).
In brackets after ≈: the same amount, converted by molar mass. Several values for one entry are separate records, joined by “and”; a condition that tells them apart may be missing. Equal entries are not always repeated. Where two headings read alike, the source gives them in different places.

What was measured:
M. tuberculosis H37Rv [1] = test: microbe, parasite or virus in culture; format: cell-based, Mycobacterium tuberculosis
M. tuberculosis H37Ra = test: microbe, parasite or virus in culture; format: cell-based, Mycobacterium tuberculosis; settings: Mycobacterium tuberculosis, H37RA
[2] = system: XDR M. tuberculosis (KMRC 00203–00197); format: cell-based, Mycobacterium tuberculosis; settings: for log reduction (CFU): 7 days
M. tuberculosis H37Rv [3] = format: cell-based, Mycobacterium tuberculosis; settings: for RFU/200 μl (replicates1-3), single values / RFU/ml (×104) / RFU/200 μl (average): Fig 2A
XDR M. tuberculosis [4] = format: cell-based, Mycobacterium tuberculosis
XDR M. tuberculosis [5] = test: Luminescence-based microbial cell viability assay; design: species or system Mycobacterium tuberculosis
M. tuberculosis H37Rv [6] = format: in vivo, BALB/c mice; design: Efficacy in BALB/C mouse model of pulmonary tuberculosis, Average / Efficacy in BALB/C mouse model of pulmonary tuberculosis, values of mice 1-6: unit not given here
in vitro [7] = format: cell-based; settings: human
Protocol: A549 human pulmonary epithelial cells (KCLB 10185), human embryonic kidney (HEK) 293 cells (KCLB 21573), human THP-1 leukemia cells (KCLB 40202), human neuroblastoma SH-SY5Y cells (KCLB 22266), Murine Raw 264.7 macrophages (KCLB 40071), and L929 murine fibroblasts (KCLB 10001) were purchased from the KCLB (Seoul, Korea). Cytotoxicity testing was performed using the MTT assay and the WST-1 cell viability assay as previously described.

in vitro [8] = format: cell-based, murine; settings: mouse
Procedure, shortened: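 Read-out: cell viability by WST-1 reduction and by MTT. The cytotoxicity workflow followed methods described previously.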

M. avium = test: microbe, parasite or virus in culture; format: cell-based; settings: Mycobacterium avium
M. colombiense = test: microbe, parasite or virus in culture; format: cell-based; settings: Mycobacterium colombiense
Acinetobacter baumannii = test: Broth dilution MIC (CLSI); format: cell-based; settings: read-out: MIC
Aspergillus fumigatus = test: Broth dilution MIC (CLSI); format: cell-based; settings: read-out: MIC
Bacillus subtilis = test: Broth dilution MIC (CLSI); format: cell-based; settings: read-out: MIC
Candida albicans = test: Broth dilution MIC (CLSI); format: cell-based; settings: read-out: MIC
Escherichia coli O157 = test: Broth dilution MIC (CLSI); format: cell-based; settings: read-out: MIC
Escherichia coli = test: Broth dilution MIC (CLSI); format: cell-based; settings: read-out: MIC
Klebsiella pneumoniae = test: Broth dilution MIC (CLSI); format: cell-based; settings: read-out: MIC
Proteus mirabilis = test: Broth dilution MIC (CLSI); format: cell-based; settings: read-out: MIC
Saccharomyces cerevisiae = test: Broth dilution MIC (CLSI); format: cell-based; settings: read-out: MIC
Serratia marcescens = test: Broth dilution MIC (CLSI); format: cell-based; settings: read-out: MIC
Shigella dysenteriae = test: Broth dilution MIC (CLSI); format: cell-based; settings: read-out: MIC
Shigella flexneri = test: Broth dilution MIC (CLSI); format: cell-based; settings: read-out: MIC
[9] = system: Staphylococcus epidermidis; test: Broth dilution MIC (CLSI); format: cell-based; settings: read-out: MIC
Streptococcus pneumoniae = test: Broth dilution MIC (CLSI); format: cell-based; settings: read-out: MIC
Trichophyton rubrum = test: Broth dilution MIC (CLSI); format: cell-based; settings: read-out: MIC

## CCCCOc1ccc2cc(CN3C(=O)CC[C@H]3C(=O)OC)c3cc(OC)c(OC)cc3c2c1 [PP2S, Methyl (S)-1-((3-butoxy-6,7-dimethoxyphenanthren-9-yl)methyl)-5-oxopyrrolidine-2-carboxylate]
M. tuberculosis H37Rv [1]
  MIC: 0.4 µg/mL (≈ 0.859 µM)
  in vitro antitubercular activities (S-form vs R-form): had in vitro antitubercular activities
M. tuberculosis H37Rv [1]; Mycobacterium tuberculosis, H37RV, read-out: MIC
  MIC: 0.8 µg/mL (≈ 1.72 µM)
M. tuberculosis H37Ra
  MIC: 0.4 µg/mL (≈ 0.859 µM)
[2]
  CFU (log): 3.65 and 3.73
  CFU (replicates1-3), single values: 5500 CFU and 1100 CFU and 2900 CFU and 2700 CFU and 6500 CFU and 5100 CFU and 5400 CFU and 6100 CFU and 5320 CFU and 9100 CFU and 3200 CFU (2×) and 3600 CFU and 3300 CFU and 3400 CFU and 2100 CFU and 12800 CFU and 8170 CFU
[2]; at 0.8 μg/ml
  log reduction (CFU): 1.8
[2]; at 1.6 μg/ml
  log reduction (CFU): 1.9
M. tuberculosis H37Rv [3]; drug conc. 0.39
  RFU/200 μl (replicates1-3), single values: 54850 RFU/200 μl and 54820 RFU/200 μl and 52200 RFU/200 μl and 52110 RFU/200 μl and 58720 RFU/200 μl and 54260 RFU/200 μl and 54210 RFU/200 μl and 54470 RFU/200 μl and 54870 RFU/200 μl
  RFU/ml (×104): 27.3 RFU/ml (×104)
M. tuberculosis H37Rv [3]; drug conc. 0.39, average of each replicate set
  RFU/200 μl (average): 54343 RFU/200 μl and 54313 RFU/200 μl and 54847 RFU/200 μl
M. tuberculosis H37Rv [3]; drug conc. 0.78
  RFU/200 μl (replicates1-3), single values: 20330 RFU/200 μl and 20390 RFU/200 μl and 21500 RFU/200 μl and 21380 RFU/200 μl and 21640 RFU/200 μl and 20670 RFU/200 μl and 20960 RFU/200 μl and 20360 RFU/200 μl and 20370 RFU/200 μl
  RFU/ml (×104): 10.4 RFU/ml (×104)
M. tuberculosis H37Rv [3]; drug conc. 0.78, average of each replicate set
  RFU/200 μl (average): 21507 RFU/200 μl and 20663 RFU/200 μl and 20363 RFU/200 μl
M. tuberculosis H37Rv [3]; drug conc. 1.56
  RFU/200 μl (replicates1-3), single values: 8330 RFU/200 μl (2×) and 8470 RFU/200 μl and 8750 RFU/200 μl and 8670 RFU/200 μl and 8690 RFU/200 μl and 8240 RFU/200 μl and 8320 RFU/200 μl and 8390 RFU/200 μl
  RFU/ml (×104): 4.2 RFU/ml (×104)
M. tuberculosis H37Rv [3]; drug conc. 1.56, average of each replicate set
  RFU/200 μl (average): 8703 RFU/200 μl and 8297 RFU/200 μl and 8397 RFU/200 μl
M. tuberculosis H37Rv [3]; fluorescence-based assay
  concentration with significant antitubercular effect: 1.56 µg/mL and 0.78 µg/mL
XDR M. tuberculosis [4]
  RFU/200 μl (replicates1-3), single values: 9970 RFU/200 μl and 10020 RFU/200 μl and 9360 RFU/200 μl and 9560 RFU/200 μl and 10400 RFU/200 μl and 10740 RFU/200 μl and 10810 RFU/200 μl and 10890 RFU/200 μl and 9990 RFU/200 μl and 20170 RFU/200 μl and 19980 RFU/200 μl and 20200 RFU/200 μl and 19820 RFU/200 μl and 20260 RFU/200 μl and 22530 RFU/200 μl and 22620 RFU/200 μl and 22580 RFU/200 μl and 20070 RFU/200 μl and 37150 RFU/200 μl and 37370 RFU/200 μl and 42810 RFU/200 μl and 39680 RFU/200 μl and 39960 RFU/200 μl and 41160 RFU/200 μl and 41210 RFU/200 μl and 41220 RFU/200 μl and 37280 RFU/200 μl
  concentration with significant antitubercular effect: 0.39 µg/mL
XDR M. tuberculosis [5]
  RLU/50ul (replicates1-3), single values: 50 RLU/50ul and 140 RLU/50ul and 80 RLU/50ul and 90 RLU/50ul (2×) and 120 RLU/50ul and 70 RLU/50ul and 130 RLU/50ul and 40 RLU/50ul and 260 RLU/50ul and 290 RLU/50ul and 430 RLU/50ul and 420 RLU/50ul and 460 RLU/50ul and 330 RLU/50ul and 390 RLU/50ul and 410 RLU/50ul and 220 RLU/50ul and 640 RLU/50ul and 720 RLU/50ul and 540 RLU/50ul and 550 RLU/50ul and 580 RLU/50ul and 450 RLU/50ul (2×) and 590 RLU/50ul and 630 RLU/50ul
  concentration with significant antitubercular effect: 0.39 µg/mL
M. tuberculosis H37Rv [6]; Fig 4C, group dose 30
  Efficacy in BALB/C mouse model of pulmonary tuberculosis, values of mice 1-6: 3500000 and 3600000 and 2100000 and 2300000 and 3900000 and 3400000
M. tuberculosis H37Rv [6]; Fig 4C, group dose 30, 6 mice
  Efficacy in BALB/C mouse model of pulmonary tuberculosis, Average: 3133333
M. tuberculosis H37Rv [6]; Fig 4C, group dose 100, 6 mice
  Efficacy in BALB/C mouse model of pulmonary tuberculosis, Average: 550000
M. tuberculosis H37Rv [6]; mouse, in vivo, po
  bacterial burden in the lungs compared to control group: significantly reduced
In vitro [7]; A549
  CC50: > 500 µg/mL
In vitro [7]; HEK-293
  CC50: > 500 µg/mL
In vitro [7]; SH-SY5Y
  CC50: > 500 µg/mL
In vitro [7]; THP-1
  CC50: > 500 µg/mL
In vitro [8]; L929
  CC50: > 500 µg/mL
In vitro [8]; Raw264.7
  CC50: > 500 µg/mL
M. avium
  MIC: > 100 µg/mL
M. colombiense
  MIC: > 100 µg/mL
Acinetobacter baumannii
  MIC: > 100 µg/mL
Aspergillus fumigatus
  MIC: > 100 µg/mL
Bacillus subtilis
  MIC: > 100 µg/mL
Candida albicans
  MIC: > 100 µg/mL
Escherichia coli O157
  MIC: > 100 µg/mL
Escherichia coli
  MIC: > 100 µg/mL
Klebsiella pneumoniae
  MIC: > 100 µg/mL
Proteus mirabilis
  MIC: > 100 µg/mL
Saccharomyces cerevisiae
  MIC: > 100 µg/mL
Serratia marcescens
  MIC: > 100 µg/mL
Shigella dysenteriae
  MIC: > 100 µg/mL
Shigella flexneri
  MIC: > 100 µg/mL
[9]
  MIC: > 100 µg/mL
Streptococcus pneumoniae
  MIC: > 100 µg/mL
Trichophyton rubrum
  MIC: > 100 µg/mL
